Laboratory results published in patent US20050222234A1, “Mucin production inhibitor” (TAIHO PHARMACEUTICAL CO., LTD., priority 2004, published 2005).

Columns and labels:
NCI-H292 cells = test: Mucin production inhibitory action (EGF-stimulated, mucin ELISA of culture supernatant); assay type: cell-based, human; conditions: for Effect on production of mucin (in words): 1-10 μM, EGF-stimulated NCI-H292 cells
Description: Mucin Production Inhibitory Action
The test was carried out in accordance with a partially modified method of Takeyama et al. (Proc. Natl. Acad. Sci. USA, Vol. 96, P. 3081-3086, 1999). The specific procedure will be described as follows. NCI-H292 cells, which are human respiratory tract epithelial cell lines, were suspended in a 10% FCS-containing RPMI 1640-culture medium, and disseminated to a 12-well culture plate so that the cell concentration of each well was adjusted to 2×10^5 cell/well, followed by culturing for two days. Subsequently, the culture medium was changed to a 0.2% FCS-containing RPMI culture medium, followed by culturing for another two days. The thus-cultured cells were employed in the test. Each test drug and EGF (25 ng/mL) were added to each well, and the mucin level of the supernatant of the culture 48 hours after initiation of culturing was determined through the ELISA method. Percent inhibition (%) with regard to control value was calculated by supposing the difference produced by subtracting normal value from control value to be 100%. In this case, the control value is defined as the mucin amount in the culture supernatant to which only EGF was added, while the normal value is defined as the muchin amount in the culture supernatant containing neither of test drug and EGF. In addition, cilomilast (J. Pharmacol. Exp. Ther., Vol. 284, p. 420-426, 1998) and roflumilast (J. Pharmacol. Exp. Ther., Vol. 297, p. 267-279, 2001), which are typical phosphodiesterase (IV) inhibitors were also tested in a similar manner.

Lewis Wistar rats = test: Inhibitory effect on hyperplasia of goblet cells in the respiratory tract epithelium (Sephadex-induced, PAS staining); assay type: in vivo, rat; conditions: oral, once per day for seven days; Sephadex i.v.; ratio of PAS-positive area
Description: (Welch test), the value in each parenthesis represents percent inhibition (%)
The test was carried out in accordance with a partially modified method of Matsubara et al. (Int. Arch. Allergy Immunol., Vol. 116, p. 67-75, 1998). The specific procedure will be described as follows. To each of the 7-week old male Lewis Wistar rats, a Sephadex suspension (0.1. mg/mL/head) was intravenously administered (total three times: day 0, 2, and 5). Two days after the final administration, the rat was slaughtered by exsanguination under anesthetic with pentobarbital. The lung-tissue was extirpated from the rat and immersed in a neutral formalin buffer for fixation. […] The ratio of the PAS-stained positive area to the respiratory tract epithelium was calculated by use of an image analysis software (Winroof). Each test compound was suspended in 0.5% hydroxypropylmethyl cellulose (HPMC), and the suspension-was orally administered once per day for continuous seven days from the start of administration of Sephadex. In the Figure, numerical data are represented by mean value±standard deviation (each group: 11-12 samples).

For COc1ccc([C@]2(C#N)CC[C@@H](C(=O)O)CC2)cc1OC1CCCC1 [Cilomilast, cilomilast, reference compound], the “Effect on production of mucin (in words)” value (NCI-H292 cells) was “promoted production of mucin”.
For COc1ccc(-c2nc3cc(-n4cncn4)ccc3[nH]2)cc1OCC1CC1 [Compound 1], the “Effect on hyperplasia of goblet cells (in words, FIG. 1)” value (Lewis Wistar rats) was “inhibitory effect”.
In the case of O=C(Nc1c(Cl)cncc1Cl)c1ccc(OC(F)F)c(OCC2CC2)c1 [Roflumilast, roflumilast, reference compound], the “Effect on production of mucin (in words)” value (NCI-H292 cells) is reported as “promoted production of mucin”.
With CCC(CC)Oc1cc(-c2nc3cc(-n4cncn4)ccc3[nH]2)ccc1OC [Compound 5] the inhibition at 1 µM (NCI-H292 cells; Homo sapiens, NCI-H292, 1 μM test drug, EGF 25 ng/mL, supernatant after 48 hours, read-out: Percent inhibition of mucin production (%)) was 15.4%, the inhibition at 3 µM (NCI-H292 cells; Homo sapiens, NCI-H292, 3 μM test drug, EGF 25 ng/mL, supernatant after 48 hours, read-out: Percent inhibition of mucin production (%)) was 40.2% and the inhibition at 10 µM (NCI-H292 cells; Homo sapiens, NCI-H292, 10 μM test drug, EGF 25 ng/mL, supernatant after 48 hours, read-out: Percent inhibition of mucin production (%)) was 65.9%.
